Experimental data published in ChEMBL document CHEMBL1201862, “PubChem BioAssay data set” (2004).
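Exposure lasted 48 hours, with cells grown in 96-well plates and compounds tested at five concentrations. GI50 marks 50% less growth.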 Calls of active or inactive are those of the source. Rule as the data show it: active = GI50 up to about 1.1 µM and inactive = higher.

Assays:
Assay in all cases: NCI tumour cell line growth inhibition, 48 h
NCI-H522 = system: NCI-H522
RXF 393 = system: RXF 393
SK-MEL-5 = system: SK-MEL-5
SN12C = system: SN12C
HCC 2998 = system: HCC 2998
A498 = system: A498
M14 = system: M14
SK-MEL-2 = system: SK-MEL-2
UACC-62 = system: UACC-62
CCRF-CEM = system: CCRF-CEM
LOX IMVI = system: LOX IMVI
OVCAR-4 = system: OVCAR-4
UACC-257 = system: UACC-257
TK-10 = system: TK-10
Hs-578T = system: Hs-578T
U-251 = system: U-251
SR = system: SR
CAKI-1 = system: CAKI-1
HOP-62 = system: HOP-62
MDA-MB-435 = system: MDA-MB-435

Measured: GI50

CC(C)C(N)(C(=O)O)c1ccccc1 (stereo not given)
inactive: NCI-H522 > 100 µM | RXF 393 > 100 µM | SK-MEL-5 > 100 µM | SN12C > 100 µM | HCC 2998 > 100 µM | A498 > 100 µM | M14 > 100 µM | SK-MEL-2 > 100 µM | UACC-62 > 100 µM | CCRF-CEM > 100 µM | LOX IMVI > 100 µM | OVCAR-4 > 100 µM | UACC-257 > 100 µM | TK-10 > 100 µM | Hs-578T > 100 µM | U-251 > 100 µM | SR > 100 µM | CAKI-1 > 100 µM | HOP-62 > 100 µM | MDA-MB-435 > 100 µM

N#CC1N(C(=O)c2ccc(F)cc2)c2ccccc2N1C(=O)c1ccc(F)cc1
inactive: NCI-H522 34.4 µM | RXF 393 71.6 µM | SK-MEL-5 23.9 µM | SN12C 77.8 µM | HCC 2998 39.7 µM | A498 > 100 µM | M14 43.8 µM | SK-MEL-2 > 100 µM | UACC-62 37.6 µM | CCRF-CEM 28 µM | LOX IMVI 29 µM | OVCAR-4 35.7 µM | UACC-257 67.6 µM | TK-10 50.9 µM | Hs-578T 68.1 µM | U-251 74.5 µM | SR 70.3 µM | CAKI-1 62.8 µM | HOP-62 > 100 µM | MDA-MB-435 46.1 µM

O=C(CC(NC(=O)C(F)(F)F)C(=O)O)OCc1ccccc1 (stereo not given)
inactive: NCI-H522 > 100 µM | RXF 393 > 100 µM | SK-MEL-5 > 100 µM | SN12C > 100 µM | HCC 2998 > 100 µM | A498 > 100 µM | M14 > 100 µM | SK-MEL-2 > 100 µM | UACC-62 > 100 µM | CCRF-CEM > 100 µM | LOX IMVI > 100 µM | OVCAR-4 > 100 µM | UACC-257 > 100 µM | TK-10 > 100 µM | Hs-578T > 100 µM | U-251 > 100 µM | SR > 100 µM | CAKI-1 > 100 µM | HOP-62 > 100 µM | MDA-MB-435 > 100 µM
